According to patent US7019132B2, “Porphyrin derivatives” (Kostarworld Co., Ltd., priority 2003, dated 2006):

Columns and labels:
mouse EMT6 cell line [1] = assay: Cell cytotoxicity caused by PDT on EMT6 cell line, MTT assay
Description: (§2) Breast cancer cell line (EMT6; 1×10^6 cells/mouse) was cultured in culture medium (DMEM+10% FBS+100 units of Penicillin+100 μg streptomycin), treated with 0.25% Trypsin-EDTA to collect the cells and the number of cells was counted using by Trypan blue staining reagent.
(§3) Each 3 ml of cells was added to 35 mm of culture dish in the concentration of 2×10^5 cells/ml and incubated in 5% CO2 incubator for 24 hrs in order that the cells be arranged to be made a mono-layer.
(§4) Photosensitizing substance was added thereto and irradiation was subjected thereon at the strength of 1.2 J using by halogen lamp. The culture dishes were transferred to incubators and incubated.
(§5) The cell cytotoxicity caused by PDT was analyzed by MTT assay and the morphology of cells was observed by microscopy.
(§6) Conventional photosensitizer, i.e., photogem®, was used as a comparative control group and several factors such as the concentration of test samples, the irradiation strength of light and the absorption time of samples etc were modified in the present experiment.

mouse EMT6 cell line [2] = system: mouse EMT6 cell line
Description: as §2, §3, §4, §5, §6

EMT6 cell = assay: MMP (mitochondrial membrane potential), JC-1 dye staining, FACS analysis; assay type: cell-based, mouse; settings: after PDT, JC-1 staining
Description: FIG. 8 depicts the diagram determining MMP (mitochondrial membrane potential) within EMT6 cell after the treatment of PDT and JC-1 dye staining by FACS analysis.

[3] = λexcitation 508 nm, toluene, air-saturated, 21° C.
Description: The transforming activity of the target compounds into singlet oxygen state was measured by following methods.
The experimental assay was performed under air-saturated condition (99.999% ultra-purified gas) using toluene (Merck Co. HPLC grade) as a solvent, in the oxygen concentration in the solution of 2.1×10^−3 M at 21° C.

EMT6 cells [4] = assay: Annexin V/PI staining for cell apoptosis; assay type: cell-based, mouse; settings: PDT treatment group 0.2 μg/hr; above 90% of cells survived in control
Description: FIG. 4 presents the staining result with Annexin V/PI staining to study the action mechanism of cell apoptosis.

EMT6 cells [5] = system: EMT6 cells
[6] = Acute toxicity test on ICR mice; assay type: in vivo; settings: i.p. 20, 10 and 1 mg/kg, observed 24 hrs
Description: (§1) The acute toxicity tests on ICR mice (mean body weight 25±5 g) and Sprague-Dawley rats (235±10 g) were performed using the compounds 1 and 10. Each group consisting of 3 mice or rats was administrated intraperitoneally with 20 mg/kg, 10 mg/kg and 1 mg/kg of test compounds or solvents (0.2 ml, i.p.), respectively and observed for 24 hrs.

[7] = Acute toxicity test on Sprague-Dawley rats; assay type: in vivo; settings: i.p. 20, 10 and 1 mg/kg, observed 24 hrs
Description: as §1

EMT6 tumor = assay: In vivo PDT assay, EMT6 breast cancer transplanted to BALB/c mouse
Description: DH-1-180-3 as a test sample of the present invention and photofrin (photogem®) as a control group were used in test.
The tumor size of each mice was determined using by caliper at the interval of 2 or 3 days and the survival ratio of the mice according to tumor was also determined.

methyl pheophorbide α triethylene glycol ester [DH-1-180-3]
optimum absorption time (mouse EMT6 cell line [1]; 0.4 μg/ml, 1.2 J): 1 h
LD100 (mouse EMT6 cell line [1]; EMT6, MTT assay, with light irradiation): 0.4 µg
optimum concentration of photosensitizer used in PDT (mouse EMT6 cell line [1]; absorption 1 hour, 1.2 J, analysis at 24 hrs): 0.4 µg/mL
cell cytotoxicity without light (mouse EMT6 cell line [2]): do not show cell cytotoxicty
intensity of irradiating light for strongest cytotoxicity / optimum (mouse EMT6 cell line [2]): 1.2 J
MMP (mitochondrial membrane potential) (EMT6 cell): remarkably decreased
transformed photon yield (singlet oxygen state) [3]: 0.60 (5%)
dead cells (EMT6 cells [4]): 50 to 60%
concentration showing the strongest cell cytotoxicity (EMT6 cells [5]): at least 0.4 μg
duration time showing the strongest cell cytotoxicity (EMT6 cells [5]): at least 60 minutes
acute toxicity findings [6]: no treatment-related effects on mortality, clinical signs, body weight changes and gross findings
acute toxicity findings [7]: no treatment-related effects on mortality, clinical signs, body weight changes and gross findings
growing ratio of tumor (EMT6 tumor; 0.4 and 0.8 mg/kg/mouse, light 1.2 J 3 h later, vs control and photofrin (2 mg/kg/mouse)): remarkably decreased
survival ratio (EMT6 tumor; PDT treatment group vs control group): extended
